Reference: paper PMC6324813, “Biological evaluation of isoflavonoids from Genista halacsyi using estrogen-target cells: Activities of glucosides compared to aglycones” (PLoS ONE, 2019)
Like-named read-outs stand apart in the source and are kept apart here.

How the values were obtained:
HT22 cells = settings: read-out: half maximal concentration for HT22 oxytosis inhibition; cited from earlier work
ERα [1] = target: T1, ERα (Homo sapiens, UniProt P03372); test: ER binding competitor assay (fluorescent estrogen ES2), ERα; set-up: purchased Invitrogen; settings: RBA = (IC50 estradiol/IC50 compound) × 100; ES2 1 nM; estradiol set equal to 100
T1 sequence (P03372 1-595): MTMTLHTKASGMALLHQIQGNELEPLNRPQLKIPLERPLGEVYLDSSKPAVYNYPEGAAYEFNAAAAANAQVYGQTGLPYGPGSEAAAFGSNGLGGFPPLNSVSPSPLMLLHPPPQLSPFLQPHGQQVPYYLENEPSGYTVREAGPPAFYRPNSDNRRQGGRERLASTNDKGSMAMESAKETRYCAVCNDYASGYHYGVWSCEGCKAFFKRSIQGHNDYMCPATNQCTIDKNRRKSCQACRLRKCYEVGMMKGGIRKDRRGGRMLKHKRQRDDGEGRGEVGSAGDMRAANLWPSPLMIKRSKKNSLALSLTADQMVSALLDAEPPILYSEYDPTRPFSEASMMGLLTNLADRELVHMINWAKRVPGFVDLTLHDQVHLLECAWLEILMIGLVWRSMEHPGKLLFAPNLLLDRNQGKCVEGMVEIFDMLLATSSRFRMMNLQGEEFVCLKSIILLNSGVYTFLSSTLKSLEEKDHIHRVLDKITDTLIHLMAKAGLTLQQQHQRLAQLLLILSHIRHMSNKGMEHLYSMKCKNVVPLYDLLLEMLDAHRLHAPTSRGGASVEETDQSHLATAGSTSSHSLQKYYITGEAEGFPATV

ERα [2] = target: T1, ERα; test: ERE-dependent luciferase gene transcription in MCF-7:D5L cells; format: cell-based; set-up: MCF-7:D5L cells, a clone of MCF-7 cells stably transfected with an Estrogen Response Element (ERE)-endowed reporter plasmid; endogenous in cells; host or cells: MCF-7:D5L (MCF-7 clone carrying pERE-Gl-Luciferase); settings: for Induction of ERE-dependent Luciferase Transcription (MCF-7:D5L cells) AUC (%): % of AUC of luciferase response of archetypal 3, 4, 5 or 8 up to 0.3, 10, 1.0 and 3.0 μM; for Induction of ERE-dependent Luciferase Transcription (MCF-7:D5L cells) EC25E2: concentration required to achieve 25% of the effect of 0.1 nM E2
Experimental: (§1) Assessment of ER/ERE-dependent luciferase gene transcription in MCF-7:D5L (express ERα) and HEK:ERβ cells (express ERβ) and determination of ER transcriptional agonism was carried as already described. Briefly, the cells were plated in 96-well plates at a density of 12,000 cells per well in phenol-red-free MEM (MCF-7:D5L cells) or phenol-red-free DMEM (HEK:ERβ cells) supplemented with 1 μg/mL insulin and 5% DCC-FBS. […] The AUC of the isoflavonoids of each group were then expressed as % of the AUC of the respective archetypal isoflavone. Since AUC data combine the efficacy as well as the potency of cell response into a single parameter, the %AUC data were considered here as a more reliable measure of relative ER/ERE-dependent luciferase expression of the test compounds.

ERβ [3] = target: T2, ERβ (Homo sapiens, UniProt Q92731); test: ER binding competitor assay (fluorescent estrogen ES2), ERβ; set-up: purchased Invitrogen; settings: for RBAβ / RBAα: ERβ-binding selectivity; for RBAβ: RBA = (IC50 estradiol/IC50 compound) × 100, ES2 1 nM, estradiol set equal to 100
T2 sequence (Q92731 whole entry): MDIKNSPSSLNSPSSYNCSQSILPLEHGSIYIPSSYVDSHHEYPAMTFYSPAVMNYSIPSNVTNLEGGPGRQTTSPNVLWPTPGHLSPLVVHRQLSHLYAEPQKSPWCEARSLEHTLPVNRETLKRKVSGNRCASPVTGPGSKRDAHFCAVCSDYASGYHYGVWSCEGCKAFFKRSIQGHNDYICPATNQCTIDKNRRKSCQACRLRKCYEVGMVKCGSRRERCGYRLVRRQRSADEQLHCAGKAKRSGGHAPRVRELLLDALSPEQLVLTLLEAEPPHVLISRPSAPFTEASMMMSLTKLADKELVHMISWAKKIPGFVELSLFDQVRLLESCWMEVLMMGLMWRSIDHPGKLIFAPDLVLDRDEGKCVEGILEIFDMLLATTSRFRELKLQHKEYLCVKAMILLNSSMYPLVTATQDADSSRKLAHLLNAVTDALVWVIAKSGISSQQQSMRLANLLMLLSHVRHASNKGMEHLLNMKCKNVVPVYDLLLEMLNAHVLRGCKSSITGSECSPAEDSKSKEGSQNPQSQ

ERβ [4] = target: T2, ERβ; test: ERE-dependent luciferase gene transcription in HEK:ERβ cells; format: cell-based; set-up: expressed in transfected cells; host or cells: HEK-293 (HEK:ERβ clone, with pERE-tk-Luciferase)
Experimental: as §1

Ishikawa cells = test: Induction of AlkP expression in Ishikawa cells; format: cell-based, human; settings: for Induction of Alkaline Phosphatase Expression (Ishikawa cells) AUC (%): % of AUC of luciferase response of archetypal 3, 4, 5 or 8 up to 0.3, 10, 1.0 and 3.0 μM; for Ratio of AUC (AlkP / Lucif): AUCAlkP / AUCluciferase; for EC (25% of 0.1 nM E2 effect) / EC50: Homo sapiens, Ishikawa; for EC (25% of 0.1 nM E2 effect) / Induction of AlkP expression (Ishikawa cells) Agonism at 1μΜ, class: 72 h; for EC (25% of 0.1 nM E2 effect): concentration required to achieve 25% of the effect of 0.1 nM E2, read-out: Induction of Alkaline Phosphatase Expression (Ishikawa cells) EC25E2; for EC50: read-out: Induction of Alkaline Phosphatase Expression (Ishikawa cells) EC50E2; for Induction of AlkP expression (Ishikawa cells) Agonism at 1μΜ, class: compounds 1 μM
Experimental: Induction of AlkP expression of Ishikawa cells is considered as a reliable in vitro measure of estrogenic activity. Assessment of AlkP expression in Ishikawa cells was carried as already described. Briefly, the cells were plated in 96-well plates at a density of 12,000 cells per well in phenol-red-free MEM supplemented with 1 μg/mL insulin and 5% DCC-FBS. […] Data on the dependence of AlkP activity on isoflavonoid concentration were curve fitted using SigmaPlot10 (SPSS Inc) and the numerical data of curve fitting were used to determine AUC as described above, using for the calculation of AUC of a particular AlkP response the very same concentration used for the respective luciferase response. The AUC of AlkP responses of the isoflavonoids of a group were expressed as % of the AUC of the luciferase response of the respective archetypal isoflavone.

MCF-7 cells = test: MCF-7 cell proliferation (MTT); format: cell-based, human; settings: for activation at 1 µM: Homo sapiens, MCF7, 72 h, read-out: Induction of cell proliferation (MCF-7 cells) Agonism at 1μΜ (% of 0.1nM E2); for MCF-7 cell proliferation agonist effect compared to the effect of 0.1 nM estradiol: isoflavonoids 1 μM, statistically significant effects; for Induction of cell proliferation (MCF-7 cells) Agonism at 1μΜ, class: compounds 1 μM, 72 h
Experimental: Test compound effects on the proliferation of MCF-7 and MDA-MB-231 cells were assessed as previously described.

[5] = concentration required to achieve 50% of the effect of 0.1 nM E2, read-out: Induction of ERE-dependent Luciferase Transcription (MCF-7:D5L cells) EC50E2
[6] = 18 h; read-out: Induction of luciferase gene transcription through ERβ, HEK:ERβ cells, Agonism at 1μΜ (% of 0.1nM E2)
[7] = concentration required to achieve 50% of the effect of 0.1 nM E2
[8] = isoflavonoids 1 μM; statistically significant effects

Compound	RBAα (ERα [1])	Induction of ERE-dependent Luciferase Transcription (MCF-7:D5L cells) AUC (%) (ERα [2])	Induction of ERE-dependent Luciferase Transcription (MCF-7:D5L cells) EC25E2 (ERα [2]) [µM]	EC50 (ERα [2]; [5]) [µM]	RBAβ / RBAα (ERβ [3])	activation at 1 µM (ERβ [4]; [6]) [%]	EC50 (Ishikawa cells; [7]) [µM]	Induction of luciferase gene transcription, MCF-7:D5L cells, Agonism at 1μΜ, class (ERα [2]; compounds 1 μM, 18 h)	RBAβ (ERβ [3])	ERβ-dependent gene transcription agonist effect compared to the effect of 0.1 nM estradiol (ERβ [4]; [8])	AlkP response lower than ERα-transcriptional response (relative AUC ratios) (Ishikawa cells)	Induction of Alkaline Phosphatase Expression (Ishikawa cells) AUC (%) (Ishikawa cells)	Ratio of AUC (AlkP / Lucif) (Ishikawa cells)	EC (25% of 0.1 nM E2 effect) (Ishikawa cells) [µM]	Induction of AlkP expression (Ishikawa cells) Agonism at 1μΜ, class (Ishikawa cells)	Induction of cell proliferation (MCF-7 cells) Agonism at 1μΜ, class (MCF-7 cells)	further results
Oc1ccc(/C=C/c2cc(O)cc(O)c2)cc1 [resveratrol]	–	–	–	–	–	–	–	–	–	–	–	–	–	–	–	–	EC50 (HT22 cells): ≥ 3 µM
O=c1c(O)c(-c2ccc(O)c(O)c2)oc2cc(O)ccc12 [fisetin]	–	–	–	–	–	–	–	–	–	–	–	–	–	–	–	–	EC50 (HT22 cells): ≥ 3 µM
O=c1c(-c2ccc(OC3O[C@H](CO)[C@@H](O)[C@H](O)[C@H]3O)cc2)coc2c(C3O[C@H](CO)[C@@H](O)[C@H](O)[C@H]3O)c(O)cc(O)c12 (stereo partly shown) [Compound 14, 8-C,4΄-O-diglucopyranosyl-genistein]	–	30±13	3.57 ± 0.58	–	2.50	–	–	Marginal (⩽10%)	0.05 ± 0.02	lower than	–	46±10	1.53±0.02	–	Marginal (⩽10%)	Marginal (⩽10%)	EC50 (ERα [2]): 7.72 ± 3.08 µM; activation at 1 µM (ERβ [4]; 18 h, read-out: Induction of luciferase gene transcription through ERβ, HEK:ERβ cells, Agonism at 1μΜ (% of 0.1nM E2)): 18 ± 1%; AlkP response higher than ERα-transcriptional response (relative AUC ratios) (Ishikawa cells): ~ 40%; EC50 (Ishikawa cells): 6.42 ± 1.52 µM
COc1cc(O)cc2occ(-c3ccc(O)cc3)c(=O)c12 [Compound 4, isoprunetin]	–	100±14	3.72 ± 0.63	7.32 ± 2.18	5.00	27 ± 5	7.94 ± 2.28	Marginal (⩽10%)	0.15 ± 0.05	lower than	–	94±16	0.94±0.03	3.9 ± 0.19	Marginal (⩽10%)	–	activation at 1 µM (MCF-7 cells): 19 ± 6%; MCF-7 cell proliferation agonist effect compared to the effect of 0.1 nM estradiol (MCF-7 cells): lower than

Now from value to compound, other results behind:

RBAα (ERα [1])	Induction of ERE-dependent Luciferase Transcription (MCF-7:D5L cells) AUC (%) (ERα [2])	Induction of ERE-dependent Luciferase Transcription (MCF-7:D5L cells) EC25E2 (ERα [2]) [µM]	EC50 (ERα [2]; [5]) [µM]	RBAβ / RBAα (ERβ [3])	activation at 1 µM (ERβ [4]; [6]) [%]	EC50 (Ishikawa cells; [7]) [µM]	Induction of luciferase gene transcription, MCF-7:D5L cells, Agonism at 1μΜ, class (ERα [2]; compounds 1 μM, 18 h)	RBAβ (ERβ [3])	ERβ-dependent gene transcription agonist effect compared to the effect of 0.1 nM estradiol (ERβ [4]; [8])	Compound	AlkP response lower than ERα-transcriptional response (relative AUC ratios) (Ishikawa cells)	Induction of Alkaline Phosphatase Expression (Ishikawa cells) AUC (%) (Ishikawa cells)	Ratio of AUC (AlkP / Lucif) (Ishikawa cells)	EC (25% of 0.1 nM E2 effect) (Ishikawa cells) [µM]	Induction of AlkP expression (Ishikawa cells) Agonism at 1μΜ, class (Ishikawa cells)	Induction of cell proliferation (MCF-7 cells) Agonism at 1μΜ, class (MCF-7 cells)	further results
0.14 ± 0.04	289±14	0.98 ± 0.07	1.57 ± 0.24	4.50	81 ± 5	2.61 ± 0.29	–	–	–	COc1cc(-c2coc3cc(O)cc(OC)c3c2=O)ccc1O [Compound 6, 3΄-methoxyisoprunetin]	~ 30%	182±8	0.63±0.01	1.6 ± 0.05	Marginal (⩽10%)	–	Induction of luciferase gene transcription through ERα, MCF-7:D5L cells, Agonism at 1μΜ (% of 0.1nM E2) (ERα [2]; compounds 1 μM, estradiol 0.1 nM, 18 h): 22 ± 5 (Weak) ^* % of 0.1nM E2; ERα-dependent gene transcription agonist effect compared to the effect of 0.1 nM estradiol (ERα [2]; isoflavonoids 1 μM, statistically significant effects): lower than; activation at 1 µM (MCF-7 cells): 32 ± 3%; MCF-7 cell proliferation agonist effect compared to the effect of 0.1 nM estradiol (MCF-7 cells): lower than
0.13 ± 0.04	103±9	5.35 ± 0.61	9.5 ± 1.57	1.15	13 ± 4	11.8 ± 2.5	Marginal (⩽10%)	0.15 ± 0.04	lower than	COc1cc(O)cc2occ(-c3ccc(O)c(O)c3)c(=O)c12 [Compound 7, 5-O-methylorobol]	~ 30%	76±15	0.74±0.13	7.08 ± 0.45	Marginal (⩽10%)	Marginal (⩽10%)	–
–	69±5	6.50 ± 1.10	29.8 ± 5.2	1.50	–	8.23 ± 1.24	Marginal (⩽10%)	–	–	COc1cc(OC2OC(CO)C(O)C(O)C2O)cc2occ(-c3ccc(O)cc3)c(=O)c12 (stereo not shown) [Compound 10, 7-O-glucopyranosyl-isoprunetin]	–	109±8	1.58±0.12	3.48 ± 0.51	Marginal (⩽10%)	Marginal (⩽10%)	Induction of luciferase gene transcription, HEK:ERβ cells, Agonism at 1μΜ, class (ERβ [4]; compounds 1 μM; 18 h): Marginal (⩽10%); AlkP response higher than ERα-transcriptional response (relative AUC ratios) (Ishikawa cells): ~ 40%
0.11 ± 0.03	1.6±0.3	>30	> 30	0.45	–	> 30	Marginal (⩽10%)	0.05 ± 0.01	–	O=c1c(-c2ccc(O)c(O)c2)coc2c(C3OC(CO)C(O)C(O)C3O)c(O)cc(O)c12 (stereo not shown) [Compound 9, 8-C-glucopyranosyl-orobol]	~ 30%	1.1±0.1	0.69±0.07	> 30	Marginal (⩽10%)	Marginal (⩽10%)	Induction of luciferase gene transcription, HEK:ERβ cells, Agonism at 1μΜ, class (ERβ [4]; compounds 1 μM; 18 h): Marginal (⩽10%)
